From PubChem BioAssay AID504479 (NMMLSC, 2011)
Calls of active or inactive are those of the source.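 The calls were made as follows: active = GFP ratio vs DMSO below 0.65 in a strain, using the primary screen cutoff set for that strain's protein target; inactive = the rest.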

Assays:
Experiment in all cases: TORC1 pathway position of GFP reporter effects – S. cerevisiae, TORC1 bypass vs wild-type strains, mechanism study for yeast TOR pathway modulator project (AID 504479)
Settings in all cases: fluorescence ratio vs DMSO, at 10 µM
YKL103C = system: YKL103C
BY4741 = system: BY4741
YBR084C-A = system: YBR084C-A
YNL142W = system: YNL142W
YCL025C = system: YCL025C
YCR005C = system: YCR005C
[1] = LAP4-GFP in TORC1 bypass strain, stronger effect = higher value
[2] = RPL19A-GFP in TORC1 bypass strain, stronger effect = lower value
[3] = MEP2-GFP in TORC1 bypass strain, stronger effect = higher value
[4] = AGP1-GFP in TORC1 bypass strain, stronger effect = higher value
[5] = CIT2-GFP in TORC1 bypass strain, stronger effect = higher value

Structure (SMILES)	GFP ratio vs DMSO (YKL103C; [1])	GFP ratio vs DMSO (YKL103C)	GFP ratio vs DMSO (BY4741)	GFP ratio vs DMSO (YBR084C-A; [2])	GFP ratio vs DMSO (YBR084C-A)	GFP ratio vs DMSO (YNL142W; [3])	GFP ratio vs DMSO (YNL142W)	GFP ratio vs DMSO (YCL025C; [4])	GFP ratio vs DMSO (YCL025C)	GFP ratio vs DMSO (YCR005C; [5])	GFP ratio vs DMSO (YCR005C)
CC(Oc1ccc(Cl)cc1)C(=O)NNC(=S)NC(=O)c1ccco1 (stereo unspecified)	1.7	2.67	1.44 (inactive)	1.25	1.15 (inactive)	1.2	1.48 (inactive)	0.847	0.99 (inactive)	0.788	0.971 (inactive)
CCOC(=O)c1c(C)oc2c1c(C(c1cccnc1)N1CCOCC1)c(O)c1ccccc12 (stereo unspecified)	1.21	2.09	1.09 (inactive)	1.1	0.914 (inactive)	1.08	1.27 (inactive)	0.642	0.972 (inactive)	0.839	1.12 (inactive)
Cn1ncc(S(=O)(=O)Cc2ccccc2)c(Cl)c1=O	1.56	1.63	1.31 (inactive)	0.786	0.76 (inactive)	0.971	1.46 (inactive)	0.801	0.984 (inactive)	1.02	1.15 (inactive)
O=C(Oc1c(Cl)cc(Cl)c2cccnc12)c1ccco1	1.19	1.78	1.18 (inactive)	1.29	1.31 (inactive)	0.959	1.07 (inactive)	0.699	0.897 (inactive)	0.81	0.971 (inactive)
COc1ccc([N+](=O)[O-])c(S(=O)(=O)c2ccc(Cl)cc2)n1	1.92	2.84	1.04 (inactive)	0.937	0.829 (inactive)	1.01	1.24 (inactive)	0.905	1.18 (inactive)	0.761	0.9 (inactive)
Cc1ccc(/C=C2/C(=O)ON=C2c2ccccc2)o1	1.15	1.99	0.941 (inactive)	0.962	1 (inactive)	1.21	1.23 (inactive)	0.642	0.87 (inactive)	0.898	1.23 (inactive)
